In publication PMC6222847, “Application of HPCCC Combined with Polymeric Resins and HPLC for the Separation of Cyclic Lipopeptides Muscotoxins A–C and Their Antimicrobial Activity” (Molecules : A Journal of Synthetic Chemistry and Natural …, 2018):
Converted amounts (≈) assume the structure as drawn. *1 amine or outer side, *2 acyl side, *3 side chain or, on linkers, in order; H or OH if unused. Where a SMILES comes first, the peptide text is derived from it. [ ]: non-standard residue; d: D form. X1 = CCCCCC(O)CC(N[*:1])C(O)C(=O)[*:2]; X2 = CC1C[C@@H](C(=O)[*:2])N([*:1])C1; d(aIle) = CC[C@H](C)[C@@H](N)C(=O)O; Dhb = C/C=C(\N)C(=O)O

Legend:
Candida friedrichii = assay: microbe, parasite or virus in culture; type: cell-based; conditions: Yamadazyma friedrichii; C. friedrichii BCC020_2879; Muller Hinton broth with 2% glucose, 300–0.0732 µg/mL (control 32–0.0625), 30 °C 48 h, triplicate; least concentration showing any inhibition; read-out: MIC
Procedure: (§1) Furthermore, compound 1 was evaluated for its antimicrobial activity against five bacterial isolates; S. aureus (CCM3824), B. subtilis (CCM1999), S. sanguinis (CCM4047), P. aeruginosa (CCM1959), E. coli (CCM2024), and eight fungal isolates; C. friedrichii (BCC020_2879), A. fumigatus (BCC020_2845), F. oxysporum (BCC020_2866), T. harzianum (BCC020_0606), B. sorokiniana (BCC020_1571), M. cucumerina (BCC020_2872), C. globosum (BCC020_2527), and A. alternata (BCC020_0609) using broth two-fold microdilution method following the standard protocol. Briefly, for broth microdilution method, the compounds were serially diluted at varying concentrations between 300 and 0.0732 µg/mL in Mueller Hinton broth (for bacteria) and Muller Hinton broth with 2% glucose (for fungi) in 96-well plates. Culture broth (0.1 mL) was added to each well containing the compound. Plates were incubated aerobically at 37 °C for 16 h (bacteria) and 30 °C for 48 h (for fungi). Negative controls were prepared separately with respective organisms in the same culture media with methanol (the dissolving solvent). Positive controls were also prepared separately with respective organisms. Erythromycin (32–0.0625 µg/mL) was used as positive control for S. aureus and S. sanguinis, gentamycin (32–0.0625 µg/mL) was used as positive control for Bacillus subtilis, E. coli, and P. aeruginosa, whereas fluconazole (32–0.0625 µg/mL) was used as positive control for all the fungal isolates. After incubation, the well with the least concentration of the compound showing any inhibition in the growth was taken as the MIC value for the respective organisms. MIC95 was determined as the concentration required to inhibit or kill 95% of bacterial isolates spectroscopically at 600 nm. Minimum fungicidal concentration (MFCs) were determined after 48 h incubation by removing 10 µL of the contents from wells showing no visible growth and spreading them on to Sabouraud dextrose agar plates. The plates were then incubated for 72 h and MFCs were determined as the concentrations which killed 95–100% of the inoculum. All the experiments were done in triplicate.

Monographella cucumerina = assay: microbe, parasite or virus in culture; type: cell-based; conditions: Plectosphaerella cucumerina; M. cucumerina BCC020_2872; Muller Hinton broth with 2% glucose, 300–0.0732 µg/mL (control 32–0.0625), 30 °C 48 h, triplicate; least concentration showing any inhibition; read-out: MIC
Procedure: as §1

Chaetomium globosum = assay: microbe, parasite or virus in culture; type: cell-based; conditions: Chaetomium globosum; C. globosum BCC020_2527; Muller Hinton broth with 2% glucose, 300–0.0732 µg/mL (control 32–0.0625), 30 °C 48 h, triplicate; least concentration showing any inhibition; read-out: MIC
Procedure: as §1

Trichoderma harzianum = assay: microbe, parasite or virus in culture; type: cell-based; conditions: Trichoderma harzianum; T. harzianum BCC020_0606; Muller Hinton broth with 2% glucose, 300–0.0732 µg/mL (control 32–0.0625), 30 °C 48 h, triplicate; least concentration showing any inhibition; read-out: MIC
Procedure: as §1

Fusarium oxysporum = assay: microbe, parasite or virus in culture; type: cell-based; conditions: Fusarium oxysporum; F. oxysporum BCC020_2866; Muller Hinton broth with 2% glucose, 300–0.0732 µg/mL (control 32–0.0625), 30 °C 48 h, triplicate; least concentration showing any inhibition; read-out: MIC
Procedure: as §1

Alternaria alternata = assay: microbe, parasite or virus in culture; type: cell-based; conditions: Alternaria alternata; A. alternata BCC020_0609; Muller Hinton broth with 2% glucose, 300–0.0732 µg/mL (control 32–0.0625), 30 °C 48 h, triplicate; least concentration showing any inhibition; read-out: MIC
Procedure: as §1

Aspergillus fumigatus = assay: microbe, parasite or virus in culture; type: cell-based; conditions: Aspergillus fumigatus; A. fumigatus BCC020_2845; Muller Hinton broth with 2% glucose, 300–0.0732 µg/mL (control 32–0.0625), 30 °C 48 h, triplicate; least concentration showing any inhibition; read-out: MIC
Procedure: as §1

Bacillus subtilis = assay: Broth two-fold microdilution; type: cell-based; conditions: B. subtilis CCM1999; Mueller Hinton broth, 300–0.0732 µg/mL (control 32–0.0625), 37 °C 16 h, triplicate; MIC = least concentration showing any inhibition in the growth
Procedure: Furthermore, compound 1 was evaluated for its antimicrobial activity against five bacterial isolates; S. aureus (CCM3824), B. subtilis (CCM1999), S. sanguinis (CCM4047), P. aeruginosa (CCM1959), E. coli (CCM2024), and eight fungal isolates; C. friedrichii (BCC020_2879), A. fumigatus (BCC020_2845), F. oxysporum (BCC020_2866), T. harzianum (BCC020_0606), B. sorokiniana (BCC020_1571), M. cucumerina (BCC020_2872), C. globosum (BCC020_2527), and A. alternata (BCC020_0609) using broth two-fold microdilution method following the standard protocol. Briefly, for broth microdilution method, the compounds were serially diluted at varying concentrations between 300 and 0.0732 µg/mL in Mueller Hinton broth (for bacteria) and Muller Hinton broth with 2% glucose (for fungi) in 96-well plates. Culture broth (0.1 mL) was added to each well containing the compound. […] MIC95 was determined as the concentration required to inhibit or kill 95% of bacterial isolates spectroscopically at 600 nm. Minimum fungicidal concentration (MFCs) were determined after 48 h incubation by removing 10 µL of the contents from wells showing no visible growth and spreading them on to Sabouraud dextrose agar plates. The plates were then incubated for 72 h and MFCs were determined as the concentrations which killed 95–100% of the inoculum. […]

[1] = Partition coefficient (K) in two-phase HPCCC solvent systems; type: physicochemical; conditions: 2 mg extract in 2 mL (1 mL per phase), HPLC-ESI-HRMS
Excerpt: When working with HPCCC, the search for a proper two-phase solvent system has been informed to represent the major part of the work involved in the HPCCC separation. An appropriate two-phase solvent system for HPCCC has to provide a good partition coefficient (0.5 ≤ K ≤ 2.5) for the target compound. […] Additionally, for achieving a good resolution between two closely eluting peaks, the separation factor (α) between the two compounds (α = K2/K1, K2 > K1) should be greater than 1.5 [14, 26]. It is well described that compounds with smaller K values show a poor resolution because they elute closer to the solvent front. On the contrary, those compounds with larger K value are better separated but elute as wider peaks and at later elution times. In the present study, the capacity of different two-phase solvent systems (Table 1) to provide suitable K values of the compounds 1–3 was investigated. The K value is frequently estimated by using HPLC with UV detection, which is calculated by dividing the peak area of the target compound in the upper phase by that of the peak area of the same target compound in the lower phase. However, given that UV chromatogram provided insufficient peak areas for minor muscotoxins, the MS detector was thus used to estimate the K values. By using this approach, the peak area of the molecular ions corresponding to the target compounds were selectively monitored from the base peak chromatogram. As presented in the Table 1, the solvent system 10 (n-hexane, ethyl acetate, ethanol, and water in a ratio of 1:5:1:5) gave suitable K values and a proper separation factor (α) for compounds 2 and 3, as well as a short settling time. […] The improvement of the K value of compound 1 could be achieved by finding out a new solvent system or by modifying the composition of the already selected solvent system. In the present study, the system 10 was acidified by adding acetic acid leading to the system 11 (n-hexane, ethyl acetate, ethanol, water, and acetic acid, 1:5:1:5:1). […] Although the partition coefficients of the target compounds in systems 10 and 11 are strongly correlated, the system 10 ensured a sufficient selectivity (α = 1.5) between the compounds 2 and 3. […] In HPCCC, it is very well established that when the retention of stationary phase is increased, a good chromatographic resolution is achieved. A reduced flow rate of the mobile phase and a high rotational speed of the column favor the retention of the stationary phase inside the HPCCC column. In this study, the flow rate of the mobile phase in the first step and second step of the HPCCC operations was 1 mL/min and the rotational speed was set at 1200 rpm. Moreover, it was observed that a good resolution between the compounds 2 and 3 was achieved when injecting 100 mg of enriched extract.
Different two-phase solvent systems were prepared using n-hexane, ethyl acetate, ethanol, water, and acetic acid in different proportions (Table 1). The prepared solvent systems were investigated for their capacity to provide suitable partition coefficients (K) of the target compounds. In addition, given that the settling time as well as the density difference between the upper and lower phases of each two-phase solvent system are parameters associated with the retention of stationary phase in the column, they were thus estimated and used as selection criteria. For estimating the partition coefficient (Table 1) of the target compound, 2 mg of extract containing the target compounds was dissolved in 2 mL of a given two-phase solvent system (1 mL per each phase). The test tube containing the sample solution was shaken vigorously, and then left, to equilibrate the two phases, for 20 min. Equal volumes of each phase were then analyzed by HPLC-ESI-HRMS to obtain the partition coefficients (K), which were calculated by dividing the peak area of the target compound in the upper phase by the peak area of compound in the lower phase.

Sclerotinia sclerotiorum = assay: Disc diffusion antifungal assay; type: cell-based; conditions: S. sclerotiorum, 250–1.5625 µg/disk, Czapek-Dox medium, mycelium growth after 4 days by image analysis, triplicate
Procedure: Due to the unavailability of enough amounts of isolated compounds, the antifungal activity for all the isolated compounds (1–3) was initially tested only against plant pathogenic fungi Sclerotinia sclerotiorum by determining the minimum inhibitory concentration (MIC) using disc diffusion assay. Compounds (1–3) were dissolved in MeOH at different concentrations and further transferred (20 µL) on layer filter paper targets (size 5 mm) to get desired concentrations of 250–1.5625 µg/disk. Discs were placed at the border of Petri dish (average 35 mm) containing Czapek-Dox medium. The mycelial target of the plant pathogenic fungus S. sclerotiorum (0.5 cm in diameter) was inoculated on the opposite sites of dish. […] The growth of fungal mycelium after 4 days in the presence of the studied compounds was evaluated using digital image analysis. […] The images (TIFF format) were converted by thresholds, and the area of binary objects corresponding to size of grown mycelium was measured and evaluated by software NIS-ELEMENTS AR ver. […] The inhibition of the mycelium growth (inhibition zone in percentages) was calculated as the difference between the measurements (in px) of the total area of fungal mycelium (negative controls) and of the area that is covered with mycelium (treated dishes).

[2] = solvent system 4, n-Hex–EtOAc–EtOH–H2O 7:3:5:5, shaken, 20 min, K = peak area UP/LP
[3] = solvent system 5, n-Hex–EtOAc–EtOH–H2O 6:4:5:5, shaken, 20 min, K = peak area UP/LP
[4] = solvent system 7, n-Hex–EtOAc–EtOH–H2O 4:5:4:5, shaken, 20 min, K = peak area UP/LP
[5] = solvent system 8, n-Hex–EtOAc–EtOH–H2O 3:5:3:5, shaken, 20 min, K = peak area UP/LP
[6] = solvent system 9, n-Hex–EtOAc–EtOH–H2O 2:5:2:5, shaken, 20 min, K = peak area UP/LP
[7] = solvent system 11, n-Hex–EtOAc–EtOH–H2O–AcOH 1:5:1:5:1, shaken, 20 min, K = peak area UP/LP

## OC(Cn1cncn1)(Cn1cncn1)c1ccc(F)cc1F [fluconazole, reference compound]
Candida friedrichii
  MIC: 8 µg/mL (≈ 26.1 µM)
Monographella cucumerina
  MIC: 2 µg/mL (≈ 6.53 µM)
Chaetomium globosum
  MIC: 2 µg/mL (≈ 6.53 µM)
Trichoderma harzianum
  MIC: 4 µg/mL (≈ 13.1 µM)
Fusarium oxysporum
  MIC: 8 µg/mL (≈ 26.1 µM)
Alternaria alternata
  MIC: 2 µg/mL (≈ 6.53 µM)
Aspergillus fumigatus
  MIC: 32 µg/mL (≈ 104 µM)

## gentamycin [reference compound]
Bacillus subtilis
  MIC: 4 µg/mL

## muscotoxin C [compound 1]
[1]; [2]
  Partition Coefficient (K) of Muscotoxins: 0.01
[1]; [3]
  Partition Coefficient (K) of Muscotoxins: 0.01
[1]; [4]
  Partition Coefficient (K) of Muscotoxins: 0.02
[1]; [5]
  Partition Coefficient (K) of Muscotoxins: 0.08
[1]; [6]
  Partition Coefficient (K) of Muscotoxins: 0.40
[1]; [7]
  Partition Coefficient (K) of Muscotoxins: 1.09
Sclerotinia sclerotiorum
  lowest dose to manifest its activity: > 250 µg

## C/C=C1\NC(=O)[C@H](CO)NC(=O)[C@@H]([C@@H](C)CC)NC(=O)[C@H](Cc2ccccc2)NC(=O)[C@@H]2CC(C)CN2C(=O)CNC(=O)[C@@H](CCC(N)=O)NC(=O)C(O)C(CC(O)CCCCC)NC(=O)[C@@H]2CCCN2C(=O)[C@@H]([C@@H](C)CC)NC(=O)[C@H](CO)NC1=O (stereo partly shown) [compound 3, muscotoxin B] (cyclo([Dhb]S[d(aIle)]P[X1][dQ]G[X2]F[d(aIle)]S))
[1]; solvent system 1, n-Hex–EtOH–H2O 10:5:5, shake test tube, equilibrated 20 min, K = peak area upper phase/lower phase
  Partition Coefficient (K) of Muscotoxins: 0.01
[1]; solvent system 2, n-Hex–EtOAc–EtOH–H2O 9:1:5:5, shaken, 20 min, K = peak area UP/LP
  Partition Coefficient (K) of Muscotoxins: 0.01
[1]; [2]
  Partition Coefficient (K) of Muscotoxins: 0.02
[1]; [3]
  Partition Coefficient (K) of Muscotoxins: 0.04
[1]; solvent system 6, n-Hex–EtOAc–EtOH–H2O 5:5:5:5, shaken, 20 min, K = peak area UP/LP
  Partition Coefficient (K) of Muscotoxins: 0.01
[1]; [4]
  Partition Coefficient (K) of Muscotoxins: 0.05
[1]; [5]
  Partition Coefficient (K) of Muscotoxins: 0.27
[1]; [6]
  Partition Coefficient (K) of Muscotoxins: 1.22
[1]; solvent system 10, n-Hex–EtOAc–EtOH–H2O 1:5:1:5, shaken, 20 min, K = peak area UP/LP
  Partition Coefficient (K) of Muscotoxins: 1.41
[1]; [7]
  Partition Coefficient (K) of Muscotoxins: 2.45
